# According to patent publication US20120178915A1, “PYRIMIDINE DERIVATIVES AND ANALOGS, PREPARATION METHOD AND USE THEREOF” (priority 2009, published 2012):
# Read-outs that look alike come from different tables or passages of the source.
# Experiments:
# [1] = system: Enterococcus faecalis 19433; assay: microbe, parasite or virus in culture; type: cell-based; conditions: 37° C., 24 h, read-out: Minimum Inhibitory Concentration, MIC
# [2] = system: Staphylococcus aureus 29231; assay: microbe, parasite or virus in culture; type: cell-based; conditions: 37° C., 24 h, read-out: Minimum Inhibitory Concentration, MIC
# [3] = system: Enterococcus faecalis 29212; assay: microbe, parasite or virus in culture; type: cell-based; conditions: 37° C., 24 h, read-out: Minimum Inhibitory Concentration, MIC
# Bacillus cereus 246 = assay: microbe, parasite or virus in culture; type: cell-based; conditions: 37° C., 24 h, read-out: Minimum Inhibitory Concentration, MIC
# Bacillus cereus 2 = assay: microbe, parasite or virus in culture; type: cell-based; conditions: 37° C., 24 h, read-out: Minimum Inhibitory Concentration, MIC
# Clostridium perfringens = assay: microbe, parasite or virus in culture; type: cell-based; conditions: 24 h, read-out: Minimum Inhibitory Concentration, MIC
# Pyogenic Streptococcus = assay: microbe, parasite or virus in culture; type: cell-based; conditions: 37° C., 24 h, read-out: Minimum Inhibitory Concentration, MIC
# [4] = system: Streptococcus pneumoniae 62; assay: microbe, parasite or virus in culture; type: cell-based; conditions: 37° C., 24 h, read-out: Minimum Inhibitory Concentration, MIC
# MIC broth microdilution = type: cell-based; conditions: Microorganism 33, Dermatophytosis; 37° C., 24 h; read-out: Minimum Inhibitory Concentration, MIC
# [5] = system: Streptococcus pneumoniae 6301; assay: microbe, parasite or virus in culture; type: cell-based; conditions: 37° C., 24 h, read-out: Minimum Inhibitory Concentration, MIC
# [6] = system: Streptococcus bovis 10035; assay: microbe, parasite or virus in culture; type: cell-based; conditions: Streptococcus equinus, 37° C., 24 h, read-out: Minimum Inhibitory Concentration, MIC
# Bacillus anthracis 1 = assay: microbe, parasite or virus in culture; type: cell-based; conditions: Bacillus anthracis, 1, 24 h, read-out: Minimum Inhibitory Concentration, MIC
# [7] = system: Streptococcus agalactiae B; assay: microbe, parasite or virus in culture; type: cell-based; conditions: 37° C., 24 h, read-out: Minimum Inhibitory Concentration, MIC
# [8] = system: Enterococcus fecal F631 (VRE); assay: organism not typed; type: cell-based; conditions: 24 h, read-out: Minimum Inhibitory Concentration, MIC
# green Streptococcus 1009 = assay: microbe, parasite or virus in culture; type: cell-based; conditions: 37° C., 24 h, read-out: Minimum Inhibitory Concentration, MIC
# MRSA 2152 = assay: Antibacterial studies in vivo, survival of mice infected with MRSA 2152; conditions: dose mg/kg: ciprofloxacin 20, 3: 30, 7: 40, 21: 50, 33: 25, 70: 70; for Survival rate (%) (life prolongation rate): (survival days of test group − blank group)/blank group ×100%, MRSA 2152 mice, tail vein; for Survival: mice inoculated intraperitoneally with MRSA 2152, test compound by tail vein, repeated after six hours, saline 1.3 days
# [9] = system: Staphylococcus aureus 704 (MRSA); assay: microbe, parasite or virus in culture; type: cell-based; conditions: 24 h, read-out: Minimum Inhibitory Concentration, MIC
# [10] = system: Enterococcus faecalis F2518 (VRE); assay: microbe, parasite or virus in culture; type: cell-based; conditions: 24 h, read-out: Minimum Inhibitory Concentration, MIC
# [11] = system: Staphylococcus aureus 43300 (MRSA); assay: microbe, parasite or virus in culture; type: cell-based; conditions: 24 h, read-out: Minimum Inhibitory Concentration, MIC
# [12] = system: Staphylococcus aureus 705 (MRSA); assay: microbe, parasite or virus in culture; type: cell-based; conditions: 24 h, read-out: Minimum Inhibitory Concentration, MIC
# Clostridium tetani = assay: microbe, parasite or virus in culture; type: cell-based; conditions: 24 h
# [13] = system: Staphylococcus aureus 703 (MRSA); assay: microbe, parasite or virus in culture; type: cell-based; conditions: 24 h, read-out: Minimum Inhibitory Concentration, MIC
# [14] = system: Streptococcus pneumoniae 10351; assay: microbe, parasite or virus in culture; type: cell-based; conditions: 37° C., 24 h, read-out: Minimum Inhibitory Concentration, MIC
# [15] = system: Corynebacterium diphtheriae; assay: microbe, parasite or virus in culture; type: cell-based; conditions: 37° C., 24 h, read-out: Minimum Inhibitory Concentration, MIC
# Bacillus subtilis 82 = assay: microbe, parasite or virus in culture; type: cell-based; conditions: 37° C., 24 h, read-out: Minimum Inhibitory Concentration, MIC
# Gram-positive Bacteria = type: cell-based; conditions: Enterococcus faecalis (VRE), Staphylococcus aureus (MRSA), Streptococcus pneumoniae 6303 (PRSP); Bacillus cereus, Bacillus subtilis, Enterococcus faecalis, Staphylococcus aureus, Streptococcus pneumoniae, Streptococcus agalactiae B and streptococci 4
# [16] = system: Streptococcus pneumoniae 6303 (PRSP); assay: microbe, parasite or virus in culture; type: cell-based; conditions: 24 h, read-out: Minimum Inhibitory Concentration, MIC
# Oral candidiasis = assay: MIC broth microdilution; type: cell-based; conditions: Microorganism 32, Oral candidiasis; 37° C., 24 h; read-out: Minimum Inhibitory Concentration, MIC
# [17] = system: Enterococcus faecalis 583 (VRE); assay: microbe, parasite or virus in culture; type: cell-based; conditions: 24 h, read-out: Minimum Inhibitory Concentration, MIC
# Bacillus subtilis 168 = assay: microbe, parasite or virus in culture; type: cell-based; conditions: 37° C., 24 h, read-out: Minimum Inhibitory Concentration, MIC
# [18] = system: Enterococcus faecalis 1513 (VRE); assay: microbe, parasite or virus in culture; type: cell-based; conditions: 24 h, read-out: Minimum Inhibitory Concentration, MIC
# [19] = system: Enterococcus faecalis 51299; assay: microbe, parasite or virus in culture; type: cell-based; conditions: Enterococcus faecalis, 51299, 24 h, read-out: Minimum Inhibitory Concentration, MIC
# [20] = system: Streptococcus pneumoniae M2; assay: microbe, parasite or virus in culture; type: cell-based; conditions: 37° C., 24 h, read-out: Minimum Inhibitory Concentration, MIC
# Streptococcus 10342 = assay: MIC broth microdilution; type: cell-based; conditions: 37° C., 24 h, read-out: Minimum Inhibitory Concentration, MIC
# [21] = read-out: Minimum Inhibitory Concentration, MIC, Microorganism 29, Clostridium tetani, 37° C.
# [22] = read-out: Minimum Inhibitory Concentration, MIC, Microorganism 30, Clostridium tetani (second line of that name), 37° C.
SMILES,MIC [1] [µM],MIC [2] [µM],MIC [3] [µM],MIC (Bacillus cereus 246) [µM],MIC (Bacillus cereus 2) [µM],MIC (Clostridium perfringens) [µM],MIC (Pyogenic Streptococcus) [µM],MIC [4] [µM],MIC (MIC broth microdilution) [µM],MIC [5] [µM],MIC [6] [µM],MIC (Bacillus anthracis 1) [µM],MIC [7] [µM],MIC [8] [µM],MIC (green Streptococcus 1009) [µM],MIC [9] [µM],MIC [10] [µM],MIC [11] [µM],MIC [12] [µM],MIC (Clostridium tetani; [21]) [µM],further results
Cc1nn2c(=O)cc(-c3ccc(C(F)(F)F)cc3)[nH]c2c1-c1ccc(Cl)cc1Cl [Compound 7],0.61,5,0.31,1.25,0.63,50.2,2.5,0.19,36.5,5,2.25,80.3,0.22,0.63,1.35,0.32,0.23,2.5,0.55,50.3,Survival rate (%) (life prolongation rate) (MRSA 2152): 330.7%; Survival (MRSA 2152): 5.6 days; MIC (Clostridium tetani; [22]): 22.1 µM; MIC [13]: 2.5 µM; MIC [14]: 1.25 µM; MIC [15]: 71.2 µM; MIC (Bacillus subtilis 82): 0.02 µM; inhibition of growth (conclusion from MICs) (Gram-positive Bacteria): significantly inhibited the growth; MIC [16]: 0.21 µM; MIC (Oral candidiasis): 35.6 µM; MIC [17]: 0.3 µM; MIC (Bacillus subtilis 168): 0.22 µM; MIC [18]: 0.65 µM; MIC [19]: 2.5 µM; MIC [20]: 2.5 µM; MIC (Streptococcus 10342): 0.25 µM
Cc1nn2c(=O)cc(-c3ccc(C#N)cc3)[nH]c2c1-c1ccc(C(F)(F)F)cc1 [Compound 3],0.42,0.22,0.23,0.53,2.5,55.3,0.12,10.5,59.1,0.3,2.01,25.6,0.16,0.33,0.31,0.63,0.48,0.36,0.46,50.3,Survival rate (%) (life prolongation rate) (MRSA 2152): 216.8%; Survival (MRSA 2152): 4.3 days; MIC (Clostridium tetani; [22]): 23.2 µM; MIC [13]: 1.25 µM; MIC [14]: 1.25 µM; MIC [15]: 62.1 µM; MIC (Bacillus subtilis 82): 5 µM; inhibition of growth (conclusion from MICs) (Gram-positive Bacteria): significantly inhibited the growth; MIC [16]: 0.32 µM; MIC (Oral candidiasis): 53.1 µM; MIC [17]: 0.63 µM; MIC (Bacillus subtilis 168): 2.5 µM; MIC [18]: 1.3 µM; MIC [19]: 0.55 µM; MIC [20]: 0.04 µM; MIC (Streptococcus 10342): 1.33 µM
Cc1c(-c2ccc(C#N)cc2)[nH]c2c(-c3ccc(Cl)cc3Cl)c(-c3ccccc3)nn2c1=O [Compound 70],0.23,0.55,2.5,1.32,0.31,30.6,1.33,10.5,125,0.2,0.02,12.5,0.25,0.55,0.23,0.35,0.55,0.56,0.55,80.2,Survival rate (%) (life prolongation rate) (MRSA 2152): 253.8%; Survival (MRSA 2152): 4.6 days; MIC (Clostridium tetani; [22]): 50.2 µM; MIC [13]: 1.25 µM; MIC [14]: 0.55 µM; MIC [15]: 45.2 µM; MIC (Bacillus subtilis 82): 1.25 µM; inhibition of growth (conclusion from MICs) (Gram-positive Bacteria): significantly inhibited the growth; MIC [16]: 0.04 µM; MIC (Oral candidiasis): 120 µM; MIC [17]: 1.25 µM; MIC (Bacillus subtilis 168): 1.25 µM; MIC [18]: 2.5 µM; MIC [19]: 2.5 µM; MIC [20]: 0.63 µM; MIC (Streptococcus 10342): 1.23 µM
Cc1c(-c2ccc(C(F)(F)F)cc2)[nH]c2c(-c3ccc(Cl)cc3Cl)c(C3CC3)nn2c1=O [Compound 21],12.3,0.6,0.32,1.55,0.36,32,1.23,0.25,33.7,0.23,1.25,13.5,0.55,0.33,1.55,0.28,2.5,0.35,0.3,30.2,Survival rate (%) (life prolongation rate) (MRSA 2152): 133.2%; Survival (MRSA 2152): 3.2 days; MIC (Clostridium tetani; [22]): 80.3 µM; MIC [13]: 0.42 µM; MIC [14]: 1.25 µM; MIC [15]: 30.3 µM; MIC (Bacillus subtilis 82): 0.68 µM; inhibition of growth (conclusion from MICs) (Gram-positive Bacteria): significantly inhibited the growth; MIC [16]: 1.33 µM; MIC (Oral candidiasis): 88.5 µM; MIC [17]: 0.11 µM; MIC (Bacillus subtilis 168): 0.46 µM; MIC [18]: 2.3 µM; MIC [19]: 10.5 µM; MIC [20]: 0.02 µM; MIC (Streptococcus 10342): 1.35 µM
Cc1nn2c(=O)cc(-c3ccc(C#N)cc3)[nH]c2c1-c1ccc(Cl)cc1Cl [Compound 10],0.02,0.63,1.25,1.32,0.31,25.1,2.5,0.25,55.9,0.16,1.05,35.6,5,0.56,1.45,0.23,0.31,1.23,0.31,60.3,MIC (Clostridium tetani; [22]): 20.3 µM; MIC [13]: 0.34 µM; MIC [14]: 1.35 µM; MIC [15]: 70.3 µM; MIC (Bacillus subtilis 82): 0.63 µM; inhibition of growth (conclusion from MICs) (Gram-positive Bacteria): significantly inhibited the growth; MIC [16]: 0.04 µM; MIC (Oral candidiasis): 99.2 µM; MIC [17]: 0.99 µM; MIC (Bacillus subtilis 168): 0.63 µM; MIC [18]: 0.61 µM; MIC [19]: 2.3 µM; MIC [20]: 0.31 µM; MIC (Streptococcus 10342): 1.15 µM
